Assay results taken from patent US11717557B2, “Use of PRG4 as an anti-inflammatory agent” (Lubris LLC, priority 2015, dated 2023).
Blank lines part the entries; values can stand above or below the molecule they belong to. Residues, ends and D or L forms follow the SMILES beside them. *: point of attachment. Cbz = O=C(OCc1ccccc1)*

Tests used:
CD44 = target: T1, CD44 (Homo sapiens, UniProt P16070); experiment: CD44 binding of sialidase-A / O-glycosidase digested rhPRG4, direct ELISA; details: coating 30 μg/mL; digestion 16 hours at 37° C.
T1 construct: purchased R & D systems
Protocol: rhPRG4 was digested using sialidase A (Prozyme, USA), O-glycosidase (New England Biolabs, USA) or a combination of sialidase A and O-glycosidase for 16 hours at 37° C. In the sialidase A digestion, 12 μL of the enzyme (1 U/200 μL) was added to rhPRG4 in a total reaction volume of 180 μL and a rhPRG4 final concentration of 300 μg/mL. In the O-glycosidase digestion, 4.8 μL of the enzyme (40 million units/mL) was added to rhPRG4 in a total reaction volume of 180 μL and a rhPRG4 final concentration of 300 μg/mL under non-denaturing conditions. In the sialidase-A and O-glycosidase digestion, the enzymes were used in volumes identical to the ones stated above and incubated with rhPRG4 in a total reaction volume and final rhPRG4 concentration as stated above. The effect of sialidase-A and O-glycosidase digestions on rhPRG4 apparent molecular weight was determined by SDS-PAGE using 4-12% Bis-Tris gel (NuPage, life technologies, USA). A total of 20 μL of rhPRG4 or enzyme-digested rhPRG4 was run under reducing conditions ([…] for 60 min) followed by staining using Gelcode Blue Stain (Thermo Scientific, USA). Binding of enzymatically digested rhPRG4 to CD44 was compared to undigested rhPRG4 using the direct ELISA approach described above and using an rhPRG4 coating concentration of 30 μg/mL. Data represents the average of 4 independent experiments, each with triplicate wells per group.

CD44 IgG1Fc [1] = target: T2, CD44 IgG1Fc (Homo sapiens, UniProt P16070); experiment: Direct ELISA: binding of coated macromolecules to CD44-IgG1Fc versus IgG1Fc; details: wells coated at 400 μg/mL; CD44-IgG1Fc or IgG1Fc 1 μg/mL; p<0.001 where significant
T2 construct: purchased R & D systems
Protocol: High-binding microtiter plates (Corning, Sigma Aldrich, USA) were coated with rhPRG4 (Mr≅240 KDa), high molecular weight HA (HMW HA; Mr≈1,500 KDa) (R & D System, USA), medium molecular weight HA (MMW HA; Mr≈300 KDa) (R & D System) and vitronectin (Mr≅75 KDa) (Sigma Aldrich) at 400 μg/mL in PBS buffer (100 μL per well) overnight at 4° C. rhPRG4 is a full-length product produced by CHO-M cells (Lubris, Framingham, Mass., USA). Following washing with PBS+0.1% Tween 20, wells were blocked with 2% bovine serum albumin (BSA; 300 μL per well) for at least 2 hours at room temperature. CD44-IgG1Fc (R & D systems) or IgG1Fc (R & D systems), each at 1 μg/mL (100 μl per well), were added to the plate and incubated for 60 min at room temperature. Following washing with PBS+0.1% tween 20, anti-IgG1Fc-HRP (Sigma Aldrich) was added at 1:10,000 dilution (100 μL per well) and incubated for 60 min at room temp. Following washing with PBS+0.1% tween 20, the assay was developed using 1-step Turbo TMB ELISA reagent (ThermoScientific, USA) and absorbance was measured at 450 nm. The data represents an average of 4 independent assays, each with triplicate wells per group.

[2] = tested on: NFκB nuclear translocation in RA-FLS; experiment: NFκB nuclear translocation after TNF-α stimulation of RA-FLS; format: cell-based; details: TNF-α 5 ng/mL; rhPRG4 200 μg/mL or MG 132 3 μM; 24 hours; p<0.001
Protocol: RA-FLS (400,000 cells/well) were cultured and stimulated with TNF-α (5 ng/mL) and treated with rhPRG4 (200 μg/mL) or a commercially available NFκB translocation inhibitor MG 132 (3 μM; Tocris Bioscience) for 24 hours in serum free media. Cells were harvested and nuclear extraction was performed using a commercially available kit (Thermo scientific). Total protein was measured using a micro bicinchonic acid (BCA) kit (Thermo scientific) and 3 μg of nuclear extract of each experimental group were used. The p50 subunit of NFκB was detected in the nuclear extract using a commercially available NFκB DNA binding assay kit (Abcam). Data is presented as the number of fold change in NFκB nuclear levels compared to untreated control. To evaluate whether inhibition of NFκB translocation by rhPRG4 is CD44 dependent, the above experiment was repeated in the presence or absence of IM7 CD44 antibody (1:1,000 dilution). Data represents the average of 3 independent experiments with at least triplicate wells per treatment.

[3] = tested on: citrated whole human blood; experiment: LPS challenge, inflammatory cytokines in whole blood (Biochip Array); format: cell-based; details: LPS 10 μg/mL, versus saline
Description: Lipopolysaccharides (LPS) are found in the outer membrane of Gram-negative bacteria and elicit strong immune inflammatory responses in animals. The effect of LPS challenge on the production of inflammatory cytokines was studied in citrated whole human blood using Biochip Array technology to profile the generation of various cytokines and the modulation of their production. The generation of IL2, IL4, IL6, IL8, IL10, VEGF, IFNg, TNFa, IL1a, IL1b, MCP1 and EGF was studied in citrated whole blood samples supplemented with saline (1-10 ratio) and LPS at 10 μg/mL in samples incubated for 60 minutes at 37° C. These mixtures were centrifuged and the supernatant plasma was analyzed for the […] inflammatory biomarkers using a high sensitivity cytokine array on a Randox Invesitigator Biochip reader. These studies were run in duplicate and tabulated in the form of a table and a figure. As shown in FIGS. 8A-B, supplementation of lipopolysaccharide in a 1:10 dilution in whole blood results in an increase in production of the inflammatory cytokines IL-4, IL-6, IL-8, IL-10, VEGF, TNF-α, IL1-β, and MCP-1 under the specified conditions. No changes in IL2, IFNg, and IL1b were noted.

[4] = tested on: Rheumatoid arthritis fibroblast-like synoviocytes (RA-FLS); experiment: Cytokine-induced RA-FLS proliferation (MTS); format: cell-based; details: 48 hours, p<0.05
Protocol: Rheumatoid arthritis fibroblast-like synoviocytes (RA-FLS; Cell Applications, USA) between 3rd and 6th passages were used to conduct these experiments. In sterile 96 well plates, RA-FLS (5,000 cells per well in 80 μL) were cultured in DMEM supplemented with 1% FBS and 1 mM pyruvate and stimulated with recombinant human interleukin-1 beta (IL-1β; R & D systems) at 20 ng/mL or tumor necrosis factor alpha (TNF-α; R & D systems) at 5 ng/mL for 48 hours at 37° C. in the absence or presence of rhPRG4 or HMW HA at a final concentration of 20, 40 or 80 μg/mL. The total volume in each well was 200 μL. Cell proliferation, an indication of inflammation, was determined using the CellTiter 96 AQueous one solution cell proliferation assay (MTS; Promega, USA) and the 490 nm absorbance was determined. Data is presented as the number of fold change in 490 nm absorbance compared to untreated control RA-FLS. The data represents the average of 3 independent experiments with at least triplicate wells per treatment. To evaluate the contribution of CD44 to the effect of rhPRG4 or HMW HA, RA-FLS were stimulated with IL-1β or TNF-α as described above. Treatment with rhPRG4 or HMW HA was conducted to a final concentration of 80 μg/mL in the absence or presence of IM7 (Abcam, USA), a CD44 neutralizing antibody that recognizes a conserved epitope across all CD44 isoforms (Samson et al., Exp Eye Res, 2014; 127C:14-19), at a final dilution of 1:200. The total volume in each well was 200 μl. Cell proliferation across the experimental groups was determined as described above and data is presented as the number of fold change in 490 nm absorbance compared to untreated control RA-FLS. The data represents the average of 3 independent experiments with at least triplicate wells per treatment.

CD44 IgG1Fc [5] = target: T2, CD44 IgG1Fc; experiment: Competition between rhPRG4 and HA on binding to CD44, ELISA; details: rhPRG4 5 μg/mL
Protocol: To evaluate the competition between rhPRG4 and either HMW HA or MMW HA on binding to CD44, microtiter plates were coated with either CD44 IgG1Fc or IgG1Fc at 1 μg/mL (100 μL per well) overnight at 4° C. Subsequently, wells were washed with PBS+0.1% tween 20 and wells were blocked using 2% BSA (300 μL per well) for at least 2 hours at room temperature. […] Following washing with PBS+0.1% tween 20, lubricin-specific monoclonal antibody (Mab 9G3) was added at 1:1,000 (100 μL per well) and incubated for 60 min at room temp. Following washing with PBS+0.1% tween 20, goat anti-mouse IgG-HRP (Thermo Scientific) at 1:1,000 dilution was added (100 μL per well) and incubated for 60 min at room temp. The assay was developed as described above. The absorbance values in the IgG1Fc wells were subtracted from the absorbance values in the CD44-IgG1Fc wells and the corrected absorbance values in the rhPRG4+HA groups were normalized to the absorbance values of the rhPRG4 group and data was expressed as percentage binding to CD44. The data represents an average of 4 independent assays, each with triplicate wells per group.

Molecule: vitronectin: vitronectin, Mr≅75 KDa (Sigma Aldrich), shares sequence homology with lubricin
450 nm absorbance in the CD44-IgG1Fc group versus the IgG1Fc group (CD44 IgG1Fc [1]): no significant difference

Molecule: sialidase-A digested rhPRG4: rhPRG4 digested using sialidase A for 16 hours at 37° C.
percentage binding to CD44 compared to untreated control (undigested rhPRG4) (CD44): significant increase

Molecule: CC(C)C[C@@H](C=O)NC(=O)[C@H](CC(C)C)NC(=O)[C@H](CC(C)C)NC(=O)OCc1ccccc1 [MG132, reference compound] (Cbz-Leu-Leu-Leu-aldehyde)
NFκB nuclear translocation compared to TNF-α-treated RA-FLS [2]: significantly reduced

Molecule: lipopolysaccharide
production of IL-4, IL-6, IL-8, IL-10, VEGF, TNF-α, IL1-β and MCP-1 ([3]; 1:10 dilution in whole blood, 60 minutes at 37° C.): increase
IL2, IFNg and IL1b ([3]; 60 minutes at 37° C.): No changes
percent changes in IL6, IL8, VEGF and TNFa ([3]; 60 minutes): pronounced increase

Further lines, with some results ahead:

percentage binding to CD44 compared to untreated control (undigested rhPRG4) (CD44): significantly higher
Molecule: sialidase-A and O-glycosidase-digested rhPRG4: rhPRG4 digested using a combination of sialidase A and O-glycosidase

percentage binding to CD44 compared to untreated control (undigested rhPRG4) (CD44): significant increase
Molecule: O-glycosidase digested rhPRG4: rhPRG4 digested using O-glycosidase for 16 hours at 37° C.

reduction of rhPRG4 binding to CD44 by an excess of HA (CD44 IgG1Fc [5]): approximately 50%
effect of HA on rhPRG4's binding to CD44 (CD44 IgG1Fc [5]; HA at 0.05, 0.25, 1, p<0.05): significantly reduced
450 nm absorbance in the CD44-IgG1Fc group versus the IgG1Fc group (CD44 IgG1Fc [1]): significantly higher
Molecule: hyaluronic acid [HMW HA]
RA-FLS proliferation with IL-1β stimulation ([4]; IL-1β 20 ng/mL, treatment 40 and 80 μg/mL): significantly suppressed
RA-FLS proliferation with TNF-α stimulation ([4]; TNF-α 5 ng/mL, treatment 20, 40 and 80 μg/mL): did not result in suppressing
